Measurements: patent US8637664B2, “Alkyl 4- [4- (5-oxo-2,3,5, 11a-tetrahydo-5H-pyrrolo [2, 1-c] [1,4] benzodiazepine-8-yloxy)-butyrylamino]-1H-pyrrole-2-carboxylate derivatives and related compounds for the treatment of a proliferative disease” (Spirogen SARL, priority 2005, dated 2014)
pIC50: −log10 of the molar value. Like-named read-outs stand apart in the source and are kept apart here.

Legend:
[1] = tested on: K562 human chronic myeloid leukaemia cells; assay: In vitro cytotoxicity, MTT assay; assay type: cell-based; settings: K562, 1 hour drug exposure, MTT after 4 days
Method: K562 human chronic myeloid leukaemia cells were maintained in RPM1 1640 medium supplemented with 10% fetal calf serum and 2 mM glutamine at 37° C. in a humidified atmosphere containing 5% CO2 and were incubated with a specified dose of drug for 1 hour at 37° C. in the dark. The incubation was terminated by centrifugation (5 min, 300 g) and the cells were washed once with drug-free medium. Following the appropriate drug treatment, the cells were transferred to 96-well microtiter plates (10^4 cells per well, 8 wells per sample). Plates were then kept in the dark at 37° C. in a humidified atmosphere containing 5% CO2. The assay is based on the ability of viable cells to reduce a yellow soluble tetrazolium salt, 3-(4,5-dimethylthiazol-2-yl)-2,5-diphenyl-2H-tetrazolium bromide (MTT, Aldrich-Sigma), to an insoluble purple formazan precipitate. Following incubation of the plates for 4 days (to allow control cells to increase in number by approximately 10 fold), 20 μL of MTT solution (5 mg/mL in phosphate-buffered saline) was added to each well and the plates further incubated for 5 hours. The plates were then centrifuged for 5 minutes at 300 g and the bulk of the medium pipetted from the cell pellet leaving 10-20 μL per well. DMSO (200 μL) was added to each well and the samples agitated to ensure complete mixing. The optical density was then read at a wavelength of 550 nm on a Titertek Multiscan ELISA plate reader, and a dose-response curve was constructed.

[2] = target: 262 bp DNA fragment (MS2F or MS2R) of MS2 plasmid; assay: DNase I footprinting on MS2 DNA fragment; assay type: binding
Method: The sequence selectivity of the six PBD-pyrrole conjugates (21, 23, 25, 27, 29) was evaluated by standard DNA footprinting on a fragment of MS2 as follows, in accordance with the technique described in Martin, C., et al., (Martin, C., et al., Biochemistry, 44(11), 4135-4147 (2005))
Forward (5′-[…]-3′) or reverse (5′-[…]-3′) primer was 5′-end labelled with ^32P by T4 polynucleotide kinase. Labelling mixture contained primer (5 pmol; Sigma-Genosys), 10× kinase buffer (1 μl; Promega), (γ-^32P)-ATP (2μ of 10 μCi/μl, 6000 Ci/mmol; Perkin Elmer Life Sciences), and T4 polynucleotide kinase (10 U; Promega) in a 10 μl final volume. Labelling mix was incubated at 37° C. for 30 minutes followed by inactivation of the kinase at 70° C. for 10 minutes. A 262 bp DNA fragment (MS2F or MS2R) was amplified from the MS2 plasmid using PCR with either labelled forward or reverse primer and the unlabelled primer as required. Reactions were comprised of labelled primer mix (10 μl), 10×PCR buffer (5 μl; Sigma), dNTPs (5 μl; 2.5 mM each of A, C, G and T, Amersham Pharmacia), unlabelled primer as required ([…]), MS2 plasmid template DNA (10 ng) and Taq DNA polymerase (5 U; Sigma) in a 50 μl final volume. Radiolabelled 262-mer was purified by non-denaturing polyacrylamide gel electrophoresis, elution, filtration and EtOH precipitation and was resuspended in a solution of Tris-HCl (10 mM) pH 7.4/NaCl (10 mM) to yield an activity of 200 counts per second per 5 μl when held up, in a pipette tip, to a capped Morgan series 900 mini-monitor.
For DNase I footprinting radiolabelled 262-mer (2 μl) was incubated overnight (16-18 h) with drug solution (388 μl) or in an aqueous buffer [HEPES (20 mM) pH 7.9, NaCl (50 mM), MgCl2 (1 mM), DTT (5 mM), 10% glycerol] in control reactions. Enzymatic cleavage was initiated by addition of DNase I solution (10 μl of 0.05 U/ml; Sigma) in aqueous NaCl (200 mM), MgCl2 (20 mM) and MnCl2 (20 mM) and halted with stop solution [40 μl of NaCl (2.25 M), EDTA (150 mM) pH 8.0, 0.57 μg/μl glycogen (0.57 μg/μl; Roche), poly(dl-dC).poly(dl-dC) DNA (19.3 ng/μl; Amersham Pharmacia)]. From this mixture, digested DNA fragments were prepared for electrophoresis following the protocol of Trauger & Dervan, and were loaded on to a preheated 8% denaturing polyacrylamide gel. Electrophoresis in 1×TBE buffer was allowed to proceed for 100 min at 70 W (1600-2000 V). The gel was the fixed in acetic acid (10% v/v) and methanol (10% v/v) for 15 minutes followed by being blotted onto Whatman 3 mM paper and vacuum-dried at 80° C. for 45 minutes.
Dried gels were stored at room temperature in phosphor storage screens (Molecular Dynamics) for a minimum period of 12 h. Data were collected from exposed screens using a Molecular Dynamics 425E Phosphorlmager and transferred to ImageQuant v1.2 software (Molecular Dynamics) for analysis. Data were expressed as the differential cleavage between control and sample lanes. Peaks were integrated and differential cleavage calculated as ln(fd)−ln(fc); (fd is the fractional cleavage at any particular bond in the presence of drug and fc is the fractional cleavage of the same bond in the control). Maxam-Gilbert G+A marker lanes were prepared in the usual fashion.
The vast majority of footprint sites are common features in the binding profiles of all six conjugates, with only a small number of sites being footprinted by a subset of the family. Even more unexpectedly, no site is footprinted by only one molecule (in fact, the fewest number of conjugates that bind at any single site is four). The differential cleavage plot provides footprinting profiles at a supramaximal concentration colour-coded for each conjugate which illustrates a striking degree of overlap. Although there is no conspicuous change in footprinting patterns as the number of pyrroles units in each conjugate increases, there are changes in two other features, namely, the apparent binding affinity and the width of the footprinted site. […]

COC(=O)c1cc(NC(=O)c2cc(NC(=O)CCCOc3cc4c(cc3OC)C(=O)N3CCC[C@H]3C=N4)cn2C)cn1C [Compound 23, (11aS) Methyl 4-({4-[4-(7-Methoxy-6-oxo-2,3,5,11a-tetrahydro-5H-pyrrolo[2,1-c][1,4]benzodiazepine-8-yloxy)-butyrylamino]-1-methyl-1H-pyrrole-2-carbonyl}-amino)-1-methyl-1H-pyrrole-2-carboxylate]
pIC50 [1]: 8.44
pIC50 ([2]; read-out: DNase IC50 (apparent binding affinity; 50% inhibition of DNase I-mediated cleavage), estimated by eye, site 5′-62CAATACACA70-3′): 6.52 to 7.00

COC(=O)c1cc(NC(=O)c2cc(NC(=O)c3cc(NC(=O)CCOc4cc5c(cc4OC)C(=O)N4CCC[C@H]4C=N5)cn3C)cn2C)cn1C [Compound C11, (11aS) Methyl 4-{[4-({4-[4-(7-Methoxy-5-oxo-2,3,5,11a-tetrahydro-5H-pyrrolo[2,1-c][1,4]benzodiazepine-8-yloxy)-propionylamino]-1-methyl-1H-pyrrole-2-carbonyl]-amino)-1-methyl-1H-pyrrole-2-carbonyl]-amino}-1-methyl-1H-pyrrole-2-carboxylate]
pIC50 [1]: 6.46
apparent binding affinity of C11 relative to 25 ([2]; C11 approximately 3 μM versus 25 30-100 nM): 30-100 fold
Footprint Position D ([2]; MS2 DNA fragment, position D): lack of footprints
Footprint Position G ([2]; MS2 DNA fragment, position G): lack of footprints
Footprint Position K ([2]; MS2 DNA fragment, position K): much weaker binding
Footprint Position L ([2]; MS2 DNA fragment, position L): much weaker binding
Footprint Position M ([2]; MS2 DNA fragment, position M): lack of footprints
pIC50 ([2]; estimated by eye from footprint gel, read-out: DNase IC50 (apparent binding affinity)): ~5.52
